A word on the IC50: it is the concentration that gives 50% inhibition.

Experimental findings from US10287255B2, “Compounds as histone deacetylase 6 inhibitors and pharmaceutical compositions comprising the same” (CHONG KUN DANG PHARMACEUTICAL CORP., priority 2014, dated 2019) are described below.

The target of assay [1] is T1, human recombinant HDAC6 (Homo sapiens, UniProt Q9UBN7).
T1 construct: purchased Calbiochem 382180
T1 sequence (Q9UBN7 1-1215): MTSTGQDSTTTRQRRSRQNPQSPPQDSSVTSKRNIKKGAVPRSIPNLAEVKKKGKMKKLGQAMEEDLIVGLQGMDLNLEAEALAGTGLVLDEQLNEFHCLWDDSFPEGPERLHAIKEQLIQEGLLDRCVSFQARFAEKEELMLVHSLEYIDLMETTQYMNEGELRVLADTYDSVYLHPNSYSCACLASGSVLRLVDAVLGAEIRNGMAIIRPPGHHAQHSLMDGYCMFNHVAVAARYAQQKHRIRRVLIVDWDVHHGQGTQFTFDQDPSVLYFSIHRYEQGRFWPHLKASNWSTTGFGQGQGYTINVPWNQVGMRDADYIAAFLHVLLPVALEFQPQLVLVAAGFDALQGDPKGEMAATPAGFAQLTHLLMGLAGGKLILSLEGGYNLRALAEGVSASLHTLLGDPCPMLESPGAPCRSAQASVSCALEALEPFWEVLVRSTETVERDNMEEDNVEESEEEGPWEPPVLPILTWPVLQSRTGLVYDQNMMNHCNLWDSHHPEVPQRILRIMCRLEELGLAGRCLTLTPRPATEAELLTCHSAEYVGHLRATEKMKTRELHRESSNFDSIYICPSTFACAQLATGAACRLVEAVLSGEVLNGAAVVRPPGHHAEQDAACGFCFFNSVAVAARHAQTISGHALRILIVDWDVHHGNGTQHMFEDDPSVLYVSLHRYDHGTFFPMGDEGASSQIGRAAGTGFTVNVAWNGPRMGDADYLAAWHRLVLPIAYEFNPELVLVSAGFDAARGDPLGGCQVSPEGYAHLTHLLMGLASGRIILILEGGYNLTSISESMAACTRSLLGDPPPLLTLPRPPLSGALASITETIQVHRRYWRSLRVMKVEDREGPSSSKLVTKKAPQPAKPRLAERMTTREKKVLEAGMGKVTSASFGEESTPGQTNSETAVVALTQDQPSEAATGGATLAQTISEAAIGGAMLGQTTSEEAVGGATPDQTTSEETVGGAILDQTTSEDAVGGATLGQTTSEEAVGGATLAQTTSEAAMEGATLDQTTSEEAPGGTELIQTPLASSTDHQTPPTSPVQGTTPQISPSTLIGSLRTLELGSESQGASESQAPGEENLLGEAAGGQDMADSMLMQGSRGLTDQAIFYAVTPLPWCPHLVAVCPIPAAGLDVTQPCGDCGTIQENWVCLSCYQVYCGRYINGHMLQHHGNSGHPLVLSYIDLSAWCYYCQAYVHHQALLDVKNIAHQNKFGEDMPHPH
The assay is described as follows: HDAC6 enzyme activity inhibition assay (in vitro, fluorimetric). Type of assay: biochemical. The following applies: for HDAC6 selectivity (fold): HDAC6 selectivity over HDAC1; for IC50: human recombinant HDAC6, fluorimetric kit, same protocol as HDAC1. In outline:
(§1)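 Human recombinant enzyme (0.3 μg for HDAC1) reacted with 10 μM Fluor de Lys-SIRT1 substrate and 5-fold compound dilutions at 30 °C for 60 min, then developer for 30 min. Fluorescence read at Ex 360/Em 460; IC50 calculated. HDAC6 run by the same protocol.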

For assay [2], the target named is T2, human recombinant HDAC1 (Homo sapiens, UniProt Q13547).
T2 construct: purchased Enzo Life Science BML-SE456
T2 sequence (Q13547 whole entry): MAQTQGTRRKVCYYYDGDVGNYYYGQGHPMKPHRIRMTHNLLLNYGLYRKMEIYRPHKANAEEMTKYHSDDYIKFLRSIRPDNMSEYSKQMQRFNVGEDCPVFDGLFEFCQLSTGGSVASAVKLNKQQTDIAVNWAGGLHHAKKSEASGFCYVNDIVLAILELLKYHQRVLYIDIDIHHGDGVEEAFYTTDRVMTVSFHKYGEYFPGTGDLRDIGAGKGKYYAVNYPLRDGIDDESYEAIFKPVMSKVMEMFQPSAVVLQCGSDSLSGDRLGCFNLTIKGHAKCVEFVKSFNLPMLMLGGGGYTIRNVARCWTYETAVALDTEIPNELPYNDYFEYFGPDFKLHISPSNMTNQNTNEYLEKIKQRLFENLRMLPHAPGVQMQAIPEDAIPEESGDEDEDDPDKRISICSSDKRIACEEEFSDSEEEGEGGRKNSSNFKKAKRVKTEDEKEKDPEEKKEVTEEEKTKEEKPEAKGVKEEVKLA
The assay is described as follows: HDAC1 enzyme activity inhibition assay (in vitro, fluorimetric). Type of assay: biochemical. The following applies: human recombinant HDAC1, fluorimetric kit, 30° C. 60 minutes. In outline: as §1

Each structure is given as a SMILES string.

Regarding `C[C@@H]1CN(Cc2ccc(C(=O)NO)cc2)C[C@H](C)N1C(=O)Cc1cccc(-c2ccccc2)c1` [Compound 234, 4-(((3R,5S)-4-(2-([1,1′-biphenyl]-3-yl)acetyl)-3,5-dimethylpiperazin-1-yl)methyl)-N-hydroxybenzamide], the “HDAC6 selectivity (fold)” value in assay [1] came out at 17 fold. In addition, the half-maximal inhibitory concentration (IC50) in assay [1] is 0.512 µM; in assay [2], 8.9 µM.

`C[C@@H]1CN(Cc2ccc(C(=O)NO)cc2)C[C@H](C)N1Cc1cccc(CN2CC[C@@H](F)C2)c1` [Compound 383, 4-(((3R,5S)-4-(3-(((R)-3-fluoropyrrolidin-1-yl)methyl)benzyl)-3,5-dimethylpiperazin-1-yl)methyl)-N-hydroxybenzamide]: in assay [1], the “HDAC6 selectivity (fold)” value is listed as more than 102 fold and the IC50 is 0.098 µM. The IC50 in assay [2] is more than 10 µM.

Take `C[C@@H]1CN(Cc2ccc(C(=O)NO)cc2)C[C@H](C)N1Cc1cncnc1` [Compound 355, 4-(((3R,5S)-3,5-dimethyl-4-(pyrimidin-5-ylmethyl)piperazin-1-yl)methyl)-N-hydroxybenzamide]: in assay [1], the “HDAC6 selectivity (fold)” value is listed as 20 fold and the IC50 amounted to 1.06 µM. Moreover, in assay [2], the concentration for half-maximal inhibition (IC50) was found to be 21 µM.

Turning to `C[C@@H]1CN(C(=O)Cc2cccc(Cl)c2)C[C@H](C)N1Cc1ccc(C(=O)NO)cc1` [Compound 233, 4-(((2S,6R)-4-(2-(3-chlorophenyl)acetyl)-2,6-dimethylpiperazin-1-yl)methyl)-N-hydroxybenzamide], the “HDAC6 selectivity (fold)” value in assay [1] is 11 fold. Also, the values for the IC50 in assay [1] and in assay [2] were 1.48 µM and 16.9 µM, respectively.

Turning to `C[C@@H]1CN(Cc2ccc(C(=O)NO)cc2)C[C@H](C)N1C(=O)c1cnccn1` [Compound 404, 4-(((3R,5S)-3,5-dimethyl-4-(pyrazine-2-carbonyl)piperazin-1-yl)methyl)-N-hydroxybenzamide], in assay [1], the “HDAC6 selectivity (fold)” value is 30 fold. For the same compound, the IC50 in assay [1] came out at 0.182 µM; in assay [2], 5.5 µM.

Take `C[C@@H]1CN(C(=O)c2cccc(-c3ccnc(F)c3)c2)C[C@H](C)N1Cc1ccc(C(=O)NO)cc1` [Compound 262, 4-(((2S,6R)-4-(3-(2-fluoropyridin-4-yl)benzoyl)-2,6-dimethylpiperazin-1-yl)methyl)-N-hydroxybenzamide]: the “HDAC6 selectivity (fold)” value in assay [1] worked out at 3 fold. The IC50 in assay [1] was 0.727 µM; in assay [2], 2.4 µM.

With `C[C@@H]1CN(Cc2ccc(C(=O)NO)cc2)C[C@H](C)N1Cc1cc(C(F)(F)F)cc(C(F)(F)F)c1` [Compound 214, 4-(((3R,5S)-4-(3,5-bis(trifluoromethyl)benzyl)-3,5-dimethylpiperazin-1-yl)methyl)-N-hydroxybenzamide], in assay [1], the “HDAC6 selectivity (fold)” value is on record as more than 61 fold and the 50% inhibitory concentration (IC50) turned out to be 0.165 µM. Further, the IC50 in assay [2] was more than 10 µM.

For the compound `C[C@@H]1CN(Cc2ccc(C(=O)NO)c(O)c2)C[C@H](C)N1Cc1ccccc1` [Compound 652, 4-(((3R,5S)-4-benzyl-3,5-dimethylpiperazin-1-yl)methyl)-N,2-dihydroxybenzamide], in assay [1], the “HDAC6 selectivity (fold)” value is listed as more than 11 fold and the 50% inhibitory concentration (IC50) was 0.88 µM. Also, in assay [2], the IC50 is more than 10 µM.

On to `C[C@@H]1CN(Cc2ccc(C(=O)NO)cc2)C[C@H](C)N1C(=O)c1cccc(C2=CCC(C)(C)CC2)c1` [Compound 247, 4-(((3R,5S)-4-(4′,4′-dimethyl-2′,3′,4′,5′-tetrahydro-[1,1′-biphenyl]-3-carbonyl)-3,5-dimethylpiperazin-1-yl)methyl)-N-hydroxybenzamide], for which, in assay [1], the “HDAC6 selectivity (fold)” value was 30 fold and the IC50 was 0.441 µM. The IC50 in assay [2] was 13.3 µM.

For `C[C@@H]1CN(Cc2ccc(C(=O)NO)cc2)C[C@H](C)N1Cc1cccc(CN2CCOCC2)c1` [Compound 356, 4-(((3R,5S)-3,5-dimethyl-4-(3-(morpholinomethyl)benzyl)piperazin-1-yl)methyl)-N-hydroxybenzamide], in assay [1], the “HDAC6 selectivity (fold)” value came out at 558 fold and the IC50 is 0.022 µM. Also, the IC50 in assay [2] is 12.3 µM.

On to `CC(C)N1C[C@@H](C)N(Cc2ccc(C(=O)NO)cc2)[C@@H](C)C1` [Compound 273, N-hydroxy-4-(((2S,6R)-4-isopropyl-2,6-dimethylpiperazin-1-yl)methyl)benzamide], for which, in assay [1], the “HDAC6 selectivity (fold)” value stood at 31 fold and the IC50 turned out to be 0.441 µM. Besides, in assay [2], the IC50 was 13.7 µM.

`C[C@@H]1CN(C(=O)NCc2ccccc2)C[C@H](C)N1Cc1ccc(C(=O)NO)cc1` [Compound 168, (3R,5S)-N-benzyl-4-(4-(hydroxycarbamoyl)benzyl)-3,5-dimethylpiperazine-1-carboxamide]: in assay [1], the “HDAC6 selectivity (fold)” value stood at 7 fold and the half-maximal inhibitory concentration (IC50) was determined as 0.316 µM. Moreover, the half-maximal inhibitory concentration (IC50) in assay [2] worked out at 2.2 µM.

As to `C[C@@H]1CN(Cc2ccc(C(=O)NO)cc2)C[C@H](C)N1C(=O)Cc1ccccc1` [Compound 146, 4-(((3R,5S)-3,5-dimethyl-4-(2-phenylacetyl)piperazin-1-yl)methyl)-N-hydroxybenzamide], in assay [1], the “HDAC6 selectivity (fold)” value stood at 314 fold and the IC50 amounted to 0.019 µM. Moreover, the half-inhibitory concentration (IC50) in assay [2] amounted to 6 µM.

As for `C[C@@H]1CN(Cc2ccc(C(=O)NO)cc2)C[C@H](C)N1Cc1cccc(CN2CCN(CC(C)(C)F)CC2)c1` [Compound 387, 4-(((3R,5S)-4-(3-((4-(2-fluoro-2-methylpropyl)piperazin-1-yl)methyl)benzyl)-3,5-dimethylpiperazin-1-yl)methyl)-N-hydroxybenzamide], the “HDAC6 selectivity (fold)” value in assay [1] is reported as more than 118 fold. The values for the 50% inhibitory concentration (IC50) in assay [1] and in assay [2] were 0.085 µM and more than 10 µM, respectively.

As to `C[C@@H]1CN(Cc2ccc(C(=O)NO)cc2)C[C@H](C)N1C(=O)c1ccc(CN2CCN(C)CC2)cc1` [Compound 462, 4-(((3R,5S)-3,5-dimethyl-4-(4-((4-methylpiperazin-1-yl)methyl)benzoyl)piperazin-1-yl)methyl)-N-hydroxybenzamide], in assay [1], the “HDAC6 selectivity (fold)” value is listed as 12 fold and the IC50 came to 0.264 µM. Moreover, the half-maximal inhibitory concentration (IC50) in assay [2] was determined as 3.2 µM.

Take `C[C@@H]1CN(Cc2ccc(C(=O)NO)cc2)C[C@H](C)N1C(=O)c1ccccn1` [Compound 123, 4-(((3R,5S)-3,5-dimethyl-4-picolinoylpiperazin-1-yl)methyl)-N-hydroxybenzamide]: in assay [1], the “HDAC6 selectivity (fold)” value came out at 2584 fold and the IC50 turned out to be 0.006 µM. Further, the concentration for half-maximal inhibition (IC50) in assay [2] turned out to be 15.5 µM.

Consider `C[C@@H]1CN(Cc2cccc(-c3ccoc3)c2)C[C@H](C)N1Cc1ccc(C(=O)NO)cc1` [Compound 396, 4-(((2S,6R)-4-(3-(furan-3-yl)benzyl)-2,6-dimethylpiperazin-1-yl)methyl)-N-hydroxybenzamide], for which, in assay [1], the “HDAC6 selectivity (fold)” value was found to be 4 fold and the IC50 came to 0.406 µM. Further, the IC50 in assay [2] was 1.7 µM.

On to `C[C@@H]1CN(Cc2ccc(C(=O)NO)cc2)C[C@H](C)N1Cc1cc(F)c(F)cc1F` [Compound 213, 4-(((3R,5S)-3,5-dimethyl-4-(2,4,5-trifluorobenzyl)piperazin-1-yl)methyl)-N-hydroxybenzamide], for which, in assay [1], the “HDAC6 selectivity (fold)” value is given as more than 29 fold and the IC50 is 0.349 µM. Also, the IC50 in assay [2] was more than 10 µM.

With `CC(C)CCN1C[C@@H](C)N(Cc2ccc(C(=O)NO)cc2)[C@@H](C)C1` [Compound 271, N-hydroxy-4-(((2S,6R)-4-isopentyl-2,6-dimethylpiperazin-1-yl)methyl)benzamide], in assay [1], the “HDAC6 selectivity (fold)” value was less than 13 fold. Further, the half-inhibitory concentration (IC50) in assay [1] is more than 1 µM; in assay [2] it was 12.5 µM.

As for `C[C@@H]1CN(C(=O)c2ccccc2-c2ccoc2)C[C@H](C)N1Cc1ccc(C(=O)NO)cc1` [Compound 277, 4-(((2S,6R)-4-(2-(furan-3-yl)benzoyl)-2,6-dimethylpiperazin-1-yl)methyl)-N-hydroxybenzamide], the “HDAC6 selectivity (fold)” value in assay [1] was 23 fold. Moreover, the IC50 in assay [1] turned out to be 0.455 µM; in assay [2] it was 10.4 µM.
